Measurements: patent US20240398775A1, “PHARMACEUTICAL COMPOSITION FOR USE IN TREATING COGNITIVE DECLINE OR FOR USE IN TREATING OVERWEIGHT OR OBESITY” (University of the Ryukyus, priority 2021, published 2024)

Legend:
[1] = system: Ca2+ permeable AMPAR (CP-AMPAR); experiment: Ca2+ imaging (Fluo-3) of hippocampal brain slices, AMPA + CTZ application (CP-AMPA reaction); type: cell-based, mouse
[2] = system: NMDA receptor (NMDAR); experiment: Ca2+ imaging (Fluo-3) of hippocampal brain slices, NMDA + glycine application (NMDA reaction); type: cell-based, mouse
[3] = Body weight monitoring of obese mice; type: in vivo, mouse
Procedure: Male C57BL/6J background and ob/ob mice were obtained from CLEA Japan Inc. and Japan SLC, respectively (3). The reason why male mice were selected is that it has been reported that male mice are susceptible to HFD, such as weight gain, metabolic changes, and disorder of learning and hippocampal synaptic plasticity. These animals were housed 3 to 4 per cage in a standard 12 hour dark-light cycle room at 25° C. in an environment with freely available food and water. All animal experiments were performed in accordance with the guidelines of the Animal Experiment Ethics Committee of the University of the Ryukyus. Time series changes in average food intake and average body weight were monitored in each condition.
HFD mice were orally administered with HydroGel (Clear HO, Portland, ME 04101, USA) at a dose of 5 mg/kg body weight (HFD treated group with PER). For ob/ob mice, CE-2 feed (CLEA Japan, Inc., Tokyo) was used. HFD mice and ob/ob mice were orally administered one per cage with PER at a dose of 5 mg/kg body weight (HFD mice and ob/ob mice PER-administered group), and body weight and HydroGel intake were monitored twice a week for both groups to adjust the dose of PER to 5 mg/kg body weight.
Post-weaning (6 weeks) food intake and body weight of mice maintained on control diet (CD), high-fat diet (HFD), or HFD containing PER (Fycompa (trademark), Eisai, Japan) (5 mg/kg/day) was monitored up to 18 w (FIGS. 2, E and F). […] To determine the effect of HFD on cognitive behaviors, the open field test (FIG. 9, AC), elevated plus maze test (FIG. 9, DE), the contextual fear conditioning test (FIG. 9, F), the novel object recognition test (FIG. 2G), and a five-trial social interaction test (FIG. 2H) were performed. […]
Mice were then split into an HFD-fed group (n=5) and a PER-containing HFD-fed group (n=5) under the condition of the same feeding amount (refer to lower Panel of FIG. 25) and their body weights monitored.

[4] = system: HFD-fed mice; experiment: Morris water maze pattern completion test; type: in vivo, mouse; settings: PER administration
Procedure: The Morris water maze task was performed as previously described using mice with CD, HFD, and HFD with PER treatment (49). All experiments were performed at approximately the same time of day. Mice were transported from the colony to the holding area and kept undisturbed for 30 minutes prior to the experiment. The tests were performed in a rectangular dimly lit room with a circular pool (Muromachi Kikai Co., Ltd., Tokyo, Japan) of 120 cm diameter filled with opaque water with skim milk (Morinaga, Japan) kept at room temperature. Four large objects illuminated by floor lamps were hung on the black curtains surrounding the pool as cues outside the maze. A hidden circular platform with a diameter of 10 cm was placed 1 cm below the surface of the water and the mice were trained to find the platform 4 times per day at intervals of approximately 60 minutes for 12 days. During training, the mice were released from 4 start points (N, S, E, and W) assigned in a pseudo-random manner and allowed to swim for 300 seconds.
On the thirteenth day, a probe trial was performed under the condition of full-cue (P1). […] Training and probe trial data were collected and analyzed using CompACT VAS/DV video tracking system software. The escape latency to the hidden platform (goal reaching time) was measured.

[5] = system: hippocampus and body weight of a person; experiment: Perampanel in an obese person: brain MRI, body weight, BMI; type: in vivo, human; settings: for BMI: 26 w after surgery / 26 weeks of PER administration, before: 37.7
Procedure: The effect of an AMPA receptor antagonist on the hippocampus and body weight of a person with a BMI value of 38 was investigated. A person had quadriplegia and respiratory disorders due to a large foramen magnum tumor. After the tumor extraction, anti-epileptic treatment was performed. As an anti-epileptic treatment, 2 mg/day (thereafter, the dose was changed to 4 mg/day) of perampanel was orally administered. The transition of the body weight and the Fugl-meyer assessment score of the lower limb was observed. In addition, the size of the hippocampus was evaluated from MRI of the brain of the at 26 weeks after surgery.

[6] = system: Aβ; experiment: Aβ staining of neurosphere culture; type: cell-based, mouse; settings: neurospheres from NL-G-F(−/−) mice, fourth day of culture, perampanel group
[7] = system: Aβ; experiment: Aβ accumulation in hippocampus and cerebral cortex of NL-G-F(−/−) mice; type: in vivo, mouse; settings: perampanel 5 mg/kg from 6 to 15 weeks of age
Source text: The effect of perampanel administration on Aβ accumulation in the hippocampal dentate gyrus (DG) CA1 and the cerebral cortex (Cx) in the Alzheimer's dementia model mouse (NL-G-F(−/−)) is shown. The X axis indicates the intensity of fluorescence, and the Y axis indicates the fluorescence count.

[8] = HFD-fed mice with oral PER 5 mg/kg/day, AMPA 100 μM + CTZ 100 μM, N = 5
[9] = hippocampal slices from mice fed HFD and PER 5 mg/kg/day orally by hydrogel
[10] = HFD-fed mice with oral PER 5 mg/kg/day, NMDA 50 μM + glycine 10 μM, N = 5

In the case of `N#Cc1ccccc1-c1cc(-c2ccccn2)cn(-c2ccccc2)c1=O` [PER, 3-(2-cyanophenyl)-5-(2-pyridyl)-1-phenyl-1,2-dihydropyridine-2-one], the “increase in [Ca2+]i via pathological AMPARs” value [1] is reported as “completely disappeared”, the “inhibitory effect on CP-AMPAR in EC, CA1, CA2, CA3 and DG” value [1] is reported as “significant inhibitory effect” and the “CP-AMPA reaction CA1 (maximum value of NF525)” value [1, 8] is reported as 1.00 ± 0.01. The “CP-AMPA reaction CA2 (maximum value of NF525)” value [1, 8] was 1.00 ± 0.02, the “CP-AMPA reaction CA3 (maximum value of NF525)” value [1, 8] was 1.00 ± 0.01 and the “CP-AMPA reaction DG (maximum value of NF525)” value [1, 8] was 1.02 ± 0.01. The “CP-AMPA reaction EC (maximum value of NF525)” value [1, 8] was 1.05 ± 0.05, the “elevation of [Ca2+]i via AMPAR” value ([1]; acute slices from HFD-fed mice, 100 μM PER applied) was “completely disappeared” and the “transmission via AMPAR” value [1, 9] was “normalize transmission via AMPAR”. The “NMDA reaction CA1 (maximum value of NF525)” value [2, 10] was 1.20 ± 0.08, the “NMDA reaction CA2 (maximum value of NF525)” value [2, 10] was 1.20 ± 0.09 and the “NMDA reaction CA3 (maximum value of NF525)” value [2, 10] was 1.12 ± 0.04. For the same molecule, the “NMDA reaction DG (maximum value of NF525)” value [2, 10] was 1.17 ± 0.04, the “NMDA reaction EC (maximum value of NF525)” value [2, 10] was 1.16 ± 0.06 and the “signal transduction via the NMDAR” value [2, 9] was “simultaneously restored”. For the same molecule, the “NMDAR function in all hippocampal subregions” value ([2]; ob/ob mice, PER administration, p<0.05) was “restoration of NMDAR function”, the body weight ([3]; HFD containing PER 5 mg/kg/day from 6 weeks to 18 w, started from 16 w compared to HFD) was “significant inhibition” and the “body weight under the same feeding amount” value ([3]; PER-containing HFD-fed group (n=5) vs HFD-fed group (n=5)) was “significant body weight loss”. For the same molecule, the “appearance and body weight” value ([3]; ob/ob mice, perampanel-containing diet 5 mg/kg body weight from 8 to 12 weeks of age) was “overweight was prevented”, the pattern completion ability [4] was “restored” and the “body weight of the person” value ([5]; obese person after administration) was “decreased smoothly”. The BMI ([5]; obese person) was 31, the BMI ([5]; obese person, listed as AMPA receptor antagonist) was 33.4 and the “gray matter/TIV” value ([5]; obese person, 26 w after surgery, oral perampanel 2 then 4 mg/day) was 0.50 L/L. For the same molecule, the “size of the hippocampus (MRI)” value ([5]; obese person, 26 weeks after surgery, PER administration) was “clearly increased”, the “Aβ staining of culture” value [6] was “decrease in Aβ” and the “Aβ accumulation in DG, CA1 and cerebral cortex” value [7] was “decrease in Aβ accumulation”.
